Experiments:
mouse [1] = conditions: Combined chronic toxicity/carcinogenicity, other, Oral, Feed, dose end: 23 month, group: systemic
dog [2] = conditions: Chronic toxicity, beagle, Oral, Feed, dose end: 52 week, group: systemic
rat [3] = conditions: Combined chronic toxicity/carcinogenicity, wistar, Oral, Feed, dose end: 104 week, group: systemic
rat [4] = conditions: Combined chronic toxicity/carcinogenicity, fischer, Oral, Feed, dose end: 2 year, group: systemic
rat [5] = conditions: Subchronic oral toxicity in rodents, wistar, Feed, dose end: 13 week
rat [6] = conditions: Prenatal developmental toxicity study, wistar, Oral, Gavage/Intubation, dose end: 15 GD
rat [7] = conditions: Multigenerational reproductive toxicity study, wistar, Oral, Feed, dose end: 3 generation
dog [8] = conditions: Chronic toxicity, beagle, Oral, Feed, dose end: 26 week, group: systemic
dog [9] = conditions: Subchronic oral toxicity in nonrodent, beagle, Feed, dose end: 13 week, group: systemic, systemic / in life observation / clinical signs / abnormal gait + systemic / in life observation / clinical signs / impaired reflex, nos + …
rabbit = conditions: Prenatal developmental toxicity study, chinchilla, Oral, Gavage/Intubation, dose end: 18 GD, group: maternal
dog [10] = conditions: Chronic toxicity; beagle; Oral; Feed; dose end: 52 week; group: systemic; systemic / in life observation / clinical signs / abnormal gait + systemic / in life observation / clinical signs / abnormal posture + …
mouse [11] = conditions: Carcinogenicity, cd1, Oral, Feed, dose end: 80 week, group: systemic
[12] = systemic / clinical chemistry / alkaline phosphatase (alp/alk) / alkaline phosphatase (alp/alk)
[13] = systemic / clinical chemistry / alkaline phosphatase (alp/alk) / alkaline phosphatase (alp/alk) + systemic / in life observation / body …
[14] = systemic / in life observation / clinical signs / ataxia + systemic / in life observation / clinical signs / defecation (diarrhea) + …
[15] = systemic / in life observation / body weight / body weight + systemic / clinical chemistry / [other] / [other] + systemic / organ weight / …
[16] = systemic / in life observation / body weight / body weight + systemic / in life observation / body weight / body weight gain + systemic / in…
[17] = group: cholinesterase, cholinesterase / cholinesterase / cholinesterase / cholinesterase (che)
[18] = group: systemic, systemic / clinical chemistry / chloride / chloride
[19] = group: developmental, developmental / developmental malformation / bone / enlarged fontanel + developmental / developmental malformation / bone / incomplete …
[20] = group: maternal, systemic / in life observation / body weight / body weight gain + systemic / in life observation / food consumption / food consumption + …
[21] = group: offspring, developmental / offspring survival late / viability index / viability index + systemic / in life observation / body weight / offspring (pup…
[22] = group: offspring, systemic / in life observation / body weight / offspring (pup) weight gain + developmental / offspring survival late / viability index / …
[23] = group: parental, systemic / in life observation / body weight / body weight
[24] = systemic / in life observation / clinical signs / defecation (diarrhea) + systemic / in life observation / clinical signs / stiffness + …
[25] = systemic / in life observation / body weight / body weight gain + systemic / in life observation / food consumption / food consumption + …
[26] = systemic / in life observation / body weight / body weight gain
[27] = systemic / in life observation / body weight / body weight gain + systemic / pathology gross / ear / lesion(s) (nos) + systemic / pathology …

For CC1(C)C(C=C(Cl)Cl)C1C(=O)OC(C#N)c1ccc(F)c(Oc2ccccc2)c1 (stereo not given) [Cyfluthrin], which LEL (mouse [1]; [12]) is on record?
Its LEL is 11.6 mg/kg/day.

What about the NEL (mouse [1]; [12]) of the same molecule?
The NEL was less than 11.6 mg/kg/day.

And the LOAEL (mouse [1]; [13])?
The LOAEL was greater than 194 mg/kg/day.

What about the NOAEL (mouse [1]; [13]) of the same molecule?
Its NOAEL is no less than 194 mg/kg/day.

What about the LOAEL (dog [2]; systemic / in life observation / clinical signs / ataxia) of the same molecule?
The LOAEL was 16 mg/kg/day.

What about the LEL (dog [2]; [14]) of the same molecule?
The LEL was 16 mg/kg/day.

What about the NEL (dog [2]; [14]) of the same molecule?
Its NEL is 4 mg/kg/day.

And the NOAEL (dog [2]; [14])?
Its NOAEL is 4 mg/kg/day.

And the LOAEL (rat [3]; systemic / in life observation / body weight / body weight)?
The LOAEL was 19.2 mg/kg/day.

And the LEL (rat [3]; systemic / in life observation / body weight / body weight + systemic / clinical chemistry / [other] / [other])?
Its LEL is 6.19 mg/kg/day.

What about the NEL (rat [3]; [15]) of the same molecule?
The NEL was 2.02 mg/kg/day.

What about the NOAEL (rat [3]; [15]) of the same molecule?
Its NOAEL is 6.19 mg/kg/day.

What about the LOAEL (rat [4]; systemic / in life observation / body weight / body weight + systemic / in life observation / body weight / body weight gain) of the same molecule?
Its LOAEL is 11.6 mg/kg/day.

And the NEL (rat [4]; [16])?
The NEL was 2.6 mg/kg/day.

What about the NOAEL (rat [4]; [16]) of the same molecule?
Its NOAEL is 2.6 mg/kg/day.

And the LEL (rat [4]; systemic / in life observation / body weight / body weight + systemic / in life observation / body weight / body weight gain + systemic / …)?
The LEL was 11.6 mg/kg/day.

What about the LEL (rat [5]; [17]) of the same molecule?
The LEL was 38.9 mg/kg/day.

What about the LOAEL (rat [5]; [17]) of the same molecule?
Its LOAEL is greater than 38.9 mg/kg/day.

And the NEL (rat [5]; [17])?
Its NEL is 9.5 mg/kg/day.

And the NOAEL (rat [5]; [17])?
The NOAEL was no less than 38.9 mg/kg/day.

What about the LEL (rat [5]; [18]) of the same molecule?
The LEL was 2.3 mg/kg/day.

And the NEL (rat [5]; [18])?
The NEL was less than 2.3 mg/kg/day.

What about the NOAEL (rat [5]; group: systemic, systemic / clinical chemistry / chloride / chloride + systemic / in life observation / body weight / body weight gain + systemic / in life …) of the same molecule?
The NOAEL was 9.5 mg/kg/day.

What about the LOAEL (rat [5]; group: systemic, systemic / in life observation / body weight / body weight gain + systemic / in life observation / clinical signs / lack of coordination + …) of the same molecule?
Its LOAEL is 38.9 mg/kg/day.

And the LEL (rat [6]; [19])?
Its LEL is 40 mg/kg/day.

What about the LOAEL (rat [6]; [19]) of the same molecule?
Its LOAEL is 40 mg/kg/day.

And the NEL (rat [6]; [19])?
Its NEL is 10 mg/kg/day.

What about the NOAEL (rat [6]; [19]) of the same molecule?
The NOAEL was 10 mg/kg/day.

And the LOAEL (rat [6]; group: maternal, systemic / in life observation / body weight / body weight gain + systemic / in life observation / food consumption / food consumption)?
The LOAEL was 10 mg/kg/day.

What about the LEL (rat [6]; [20]) of the same molecule?
Its LEL is 10 mg/kg/day.

What about the NEL (rat [6]; [20]) of the same molecule?
The NEL was 3 mg/kg/day.

What about the NOAEL (rat [6]; [20]) of the same molecule?
Its NOAEL is 3 mg/kg/day.

And the LOAEL (rat [7]; [21])?
Its LOAEL is 12.3 mg/kg/day.

And the NOAEL (rat [7]; [21])?
Its NOAEL is 3.8 mg/kg/day.

What about the LEL (rat [7]; [22]) of the same molecule?
The LEL was 3.8 mg/kg/day.

And the NEL (rat [7]; [22])?
Its NEL is less than 3.8 mg/kg/day.

What about the LEL (rat [7]; [23]) of the same molecule?
Its LEL is 3.8 mg/kg/day.

What about the NEL (rat [7]; [23]) of the same molecule?
Its NEL is less than 3.8 mg/kg/day.

And the LOAEL (rat [7]; group: parental, systemic / in life observation / body weight / body weight gain)?
The LOAEL was 37.2 mg/kg/day.

And the NOAEL (rat [7]; group: parental, systemic / in life observation / body weight / body weight gain + systemic / in life observation / body weight / body weight)?
The NOAEL was 12.3 mg/kg/day.

What about the LOAEL (dog [8]; [24]) of the same molecule?
The LOAEL was 15 mg/kg/day.

What about the NEL (dog [8]; [24]) of the same molecule?
The NEL was 1.62 mg/kg/day.

And the NOAEL (dog [8]; [24])?
The NOAEL was 5 mg/kg/day.

What about the LEL (dog [8]; systemic / organ weight / thymus / absolute) of the same molecule?
Its LEL is 5 mg/kg/day.

What about the LEL (dog [9]) of the same molecule?
The LEL was 13.9 mg/kg/day.

What about the LOAEL (dog [9]) of the same molecule?
Its LOAEL is 13.9 mg/kg/day.

What about the NEL (dog [9]) of the same molecule?
Its NEL is 2.36 mg/kg/day.

What about the NOAEL (dog [9]) of the same molecule?
Its NOAEL is 2.36 mg/kg/day.

And the LOAEL (rabbit; systemic / in life observation / body weight / body weight gain + systemic / in life observation / food consumption / food consumption)?
Its LOAEL is 60 mg/kg/day.

And the LEL (rabbit; [25])?
The LEL was 60 mg/kg/day.

And the NEL (rabbit; [25])?
Its NEL is 20 mg/kg/day.

What about the NOAEL (rabbit; [25]) of the same molecule?
Its NOAEL is 20 mg/kg/day.

What about the LEL (dog [10]) of the same molecule?
Its LEL is 10.6 mg/kg/day.

What about the LOAEL (dog [10]) of the same molecule?
Its LOAEL is 10.6 mg/kg/day.

What about the NEL (dog [10]) of the same molecule?
Its NEL is 2.43 mg/kg/day.

And the NOAEL (dog [10])?
The NOAEL was 2.43 mg/kg/day.

What about the LEL (mouse [11]; [26]) of the same molecule?
The LEL was 31.9 mg/kg/day.

What about the NEL (mouse [11]; [26]) of the same molecule?
The NEL was less than 31.9 mg/kg/day.

What about the LOAEL (mouse [11]; [27]) of the same molecule?
The LOAEL was 115 mg/kg/day.

What about the NOAEL (mouse [11]; [27]) of the same molecule?
The NOAEL was 31.9 mg/kg/day.

Source: EPA's ToxRefDB 2
